The target of test [1] is T1, Steryl-sulfatase (Homo sapiens) (UniProt P08842).
T1 sequence (whole entry): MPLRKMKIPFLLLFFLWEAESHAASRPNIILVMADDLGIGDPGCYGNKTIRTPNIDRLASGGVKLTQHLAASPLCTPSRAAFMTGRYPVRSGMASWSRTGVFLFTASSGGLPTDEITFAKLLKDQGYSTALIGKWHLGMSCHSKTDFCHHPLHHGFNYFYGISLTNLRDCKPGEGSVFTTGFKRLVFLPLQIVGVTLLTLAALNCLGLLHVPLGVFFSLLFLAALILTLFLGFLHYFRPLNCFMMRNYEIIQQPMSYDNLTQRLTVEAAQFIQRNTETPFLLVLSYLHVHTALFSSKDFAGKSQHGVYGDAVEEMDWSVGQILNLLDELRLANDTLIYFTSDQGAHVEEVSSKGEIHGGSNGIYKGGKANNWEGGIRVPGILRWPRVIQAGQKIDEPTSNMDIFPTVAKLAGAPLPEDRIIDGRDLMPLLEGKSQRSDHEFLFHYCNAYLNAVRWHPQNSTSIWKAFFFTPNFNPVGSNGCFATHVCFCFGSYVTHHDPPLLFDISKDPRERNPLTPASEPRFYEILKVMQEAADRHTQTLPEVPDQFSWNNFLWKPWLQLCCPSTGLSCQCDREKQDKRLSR
Kind of test: Inhibition of STS (unknown origin) expressed in HEK-293 cells assessed as transformation of [3H]-E1S into E1 at 0.1 uM by […]. It counts as cell-based. The following applies: HEK293.

Test [2] has as its target T1, Steryl-sulfatase (Homo sapiens). The experiment in a line: Inhibition of STS (unknown origin) expressed in HEK-293 cells assessed as transformation of [3H]-E1S into E1 at 1 uM by […]. It counts as cell-based. To be noted: HEK293.

As for `NS(=O)(=O)Oc1ccc2c(c1)CN(C(=O)c1cccc(N3CCc4ccccc4C3)c1)CC2`, the inhibition in test [1] worked out at 24.1%; in test [2], 50.2%.
Take `CCCN(CCC)c1cccc(C(=O)N2CCc3ccc(OS(N)(=O)=O)cc3C2)c1`: the values for the inhibition in test [1] and in test [2] were 8.3% and 54.8%, respectively.
Taken in the same sequence, the figures for `CN(C)CCN(CCN(C)C)c1ccc(C(=O)N2CCc3ccc(OS(N)(=O)=O)cc3C2)cc1` were 3.8% and 15.9%.
As to `CN(C)CCCN(Cc1ccccc1)c1ccc(C(=O)N2CCc3ccc(OS(N)(=O)=O)cc3C2)cc1`, the figures for the inhibition in test [1] and in test [2] were 16.2% and 61.6%, respectively.
Consider `NS(=O)(=O)Oc1ccc2c(c1)CN(C(=O)c1cccc(N(CCO)Cc3ccccc3)c1)CC2`, for which the inhibition in test [1] turned out to be 26.7%; in test [2], 32.4%.
For the molecule `NS(=O)(=O)Oc1ccc2c(c1)CN(C(=O)c1ccc(N3CCc4ccccc4C3)cc1)CC2`, the inhibition was found to be 56% in test [1] and 83% in test [2].
For `CCN(Cc1cccc(Br)c1)c1ccc(C(=O)N2CCc3ccc(OS(N)(=O)=O)cc3C2)cc1`, the inhibition in test [1] is 80.2%; in test [2], 97.2%.
Taken in the same sequence, the figures for `NS(=O)(=O)Oc1ccc2c(c1)CN(C(=O)c1ccc(N3CCOCC3)cc1)CC2` were 10.9% and 50.6%.
On the same counts, the results for `NS(=O)(=O)Oc1ccc2c(c1)CN(C(=O)c1cccc(N(Cc3ccccc3)Cc3ccco3)c1)CC2` are 27.5% and 90.5%.
On the same counts, the results for `CC(C)CCN(CCC(C)C)c1cccc(C(=O)N2CCc3ccc(OS(N)(=O)=O)cc3C2)c1` are 32.3% and 75.9%.
`CCN(Cc1ccccn1)c1ccc(C(=O)N2CCc3ccc(OS(N)(=O)=O)cc3C2)cc1`: the inhibition came out at 42.5% in test [1] and 87.7% in test [2].
Take `CCN(Cc1ccncc1)c1ccc(C(=O)N2CCc3ccc(OS(N)(=O)=O)cc3C2)cc1`: the inhibition is 47% in test [1] and 86.6% in test [2].
On to `CN(C)CCCN(Cc1ccccc1)c1cccc(C(=O)N2CCc3ccc(OS(N)(=O)=O)cc3C2)c1`, for which the inhibition worked out at 23.8% in test [1] and 26% in test [2].
With `CCCN(Cc1ccccc1)c1ccc(C(=O)N2CCc3ccc(OS(N)(=O)=O)cc3C2)cc1`, the inhibition in test [1] turned out to be 64.8%; in test [2], 94.3%.
On the same counts, the results for `NS(=O)(=O)Oc1ccc2c(c1)CN(C(=O)c1ccc(N3CCSCC3)cc1)CC2` are 32.3% and 80.2%.
For the molecule `CCN(Cc1cccnc1)c1cccc(C(=O)N2CCc3ccc(OS(N)(=O)=O)cc3C2)c1`, the inhibition in test [1] stood at 14.3%; in test [2], 33.5%.
Regarding `CCN(Cc1ccncc1)c1cccc(C(=O)N2CCc3ccc(OS(N)(=O)=O)cc3C2)c1`, the inhibition in test [1] was found to be 33.3%; in test [2] it was 52.8%.
Taken in the same sequence, the figures for `CCN(Cc1cccc(Br)c1)c1cccc(C(=O)N2CCc3ccc(OS(N)(=O)=O)cc3C2)c1` were 20.9% and 24.9%.
On to `NS(=O)(=O)Oc1ccc2c(c1)CN(C(=O)c1ccc(N3CCC(N4CCCCC4)CC3)cc1)CC2`, for which the inhibition in test [1] is 8.5%; in test [2], 53.7%.
Consider `CCN(Cc1ccc(F)cc1)c1cccc(C(=O)N2CCc3ccc(OS(N)(=O)=O)cc3C2)c1`, for which the values for the inhibition in test [1] and in test [2] were 10.9% and 66.5%, respectively.
Taken in the same sequence, the figures for `NS(=O)(=O)Oc1ccc2c(c1)CN(C(=O)c1ccc(N3CCN(Cc4ccccc4)CC3)cc1)CC2` were 20.8% and 75.8%.
On the same counts, the results for `CN(CCCN1CCCCC1)c1cccc(C(=O)N2CCc3ccc(OS(N)(=O)=O)cc3C2)c1` are 24.1% and 30.6%.
Consider `NS(=O)(=O)Oc1ccc2c(c1)CN(C(=O)c1ccc(N(CCO)Cc3ccccc3)cc1)CC2`, for which the inhibition is 27.9% in test [1] and 78% in test [2].
On the same counts, the results for `NS(=O)(=O)Oc1ccc2c(c1)CN(C(=O)c1ccc(N3CCN(c4ncccn4)CC3)cc1)CC2` are 14.7% and 41.9%.

As usually defined, the inhibition is the percentage by which the read-out fell short of the control.
